Results on two compounds are retold here after ChEMBL document CHEMBL1145420, “On sampling of fragment space” (J Med Chem, 2007).

A value given as a limit tells only on which side of the number the result lay.

In experiment [1] the target is T1, Prolyl endopeptidase (Homo sapiens) (UniProt P48147).
T1 sequence (whole entry): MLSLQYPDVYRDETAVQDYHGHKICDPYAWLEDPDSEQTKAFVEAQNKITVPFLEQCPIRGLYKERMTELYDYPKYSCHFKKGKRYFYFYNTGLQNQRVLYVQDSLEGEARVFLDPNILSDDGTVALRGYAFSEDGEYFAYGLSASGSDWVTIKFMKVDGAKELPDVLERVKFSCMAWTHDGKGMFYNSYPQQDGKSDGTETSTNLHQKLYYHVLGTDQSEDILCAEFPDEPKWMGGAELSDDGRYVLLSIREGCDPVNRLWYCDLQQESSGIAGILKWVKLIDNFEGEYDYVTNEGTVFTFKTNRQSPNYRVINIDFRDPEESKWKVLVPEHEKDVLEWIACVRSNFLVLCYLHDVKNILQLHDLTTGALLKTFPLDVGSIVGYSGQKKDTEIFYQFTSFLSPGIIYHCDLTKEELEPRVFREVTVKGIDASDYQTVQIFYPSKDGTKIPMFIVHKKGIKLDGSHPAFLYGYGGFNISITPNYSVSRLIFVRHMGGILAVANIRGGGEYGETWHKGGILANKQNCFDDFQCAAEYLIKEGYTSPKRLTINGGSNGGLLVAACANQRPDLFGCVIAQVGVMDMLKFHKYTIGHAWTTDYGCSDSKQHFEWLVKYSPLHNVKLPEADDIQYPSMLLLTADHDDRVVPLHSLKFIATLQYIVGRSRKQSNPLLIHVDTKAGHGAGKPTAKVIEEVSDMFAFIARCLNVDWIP
Description: Inhibition of PEP.

Experiment [2] addresses Prolyl endopeptidase FAP (Homo sapiens) (UniProt Q12884). Description: Inhibition of FAP.
Experiment [3] has as its target Dipeptidyl peptidase 8 (Homo sapiens) (UniProt Q6V1X1). Description: Inhibition of DPP8.
Experiment [4] concerns the target Dipeptidyl peptidase 2 (Homo sapiens) (UniProt Q9UHL4). Kind of experiment: Inhibition of QPP.
Experiment [5] concerns the target Dipeptidyl peptidase 9 (Homo sapiens) (UniProt Q86TI2). Description: Inhibition of DPP9.

Dipeptidyl peptidase 9 (Homo sapiens), sequence (Q86TI2 2-863 limits assumed): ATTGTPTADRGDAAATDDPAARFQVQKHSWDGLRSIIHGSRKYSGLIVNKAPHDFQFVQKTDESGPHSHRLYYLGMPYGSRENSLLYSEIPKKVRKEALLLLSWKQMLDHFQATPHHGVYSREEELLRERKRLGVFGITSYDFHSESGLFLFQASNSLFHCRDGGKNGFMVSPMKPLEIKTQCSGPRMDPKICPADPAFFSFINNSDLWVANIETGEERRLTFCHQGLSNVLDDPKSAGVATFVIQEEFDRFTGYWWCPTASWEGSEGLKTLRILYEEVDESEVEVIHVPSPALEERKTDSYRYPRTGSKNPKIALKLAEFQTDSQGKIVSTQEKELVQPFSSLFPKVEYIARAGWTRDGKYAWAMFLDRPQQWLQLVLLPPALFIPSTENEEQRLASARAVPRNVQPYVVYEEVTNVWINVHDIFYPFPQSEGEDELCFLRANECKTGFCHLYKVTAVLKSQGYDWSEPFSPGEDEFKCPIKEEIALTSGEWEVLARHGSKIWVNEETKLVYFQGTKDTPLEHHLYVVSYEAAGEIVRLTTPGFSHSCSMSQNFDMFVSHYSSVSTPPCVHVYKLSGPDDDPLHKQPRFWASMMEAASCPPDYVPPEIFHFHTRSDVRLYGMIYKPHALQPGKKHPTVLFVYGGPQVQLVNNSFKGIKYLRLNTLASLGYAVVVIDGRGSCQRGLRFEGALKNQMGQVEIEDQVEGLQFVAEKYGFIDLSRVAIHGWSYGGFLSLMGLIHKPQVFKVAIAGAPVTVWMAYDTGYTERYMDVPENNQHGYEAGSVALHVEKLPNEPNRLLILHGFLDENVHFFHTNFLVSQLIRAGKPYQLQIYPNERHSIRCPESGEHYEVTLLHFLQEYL
Dipeptidyl peptidase 8 (Homo sapiens), sequence (Q6V1X1 whole entry, looked up): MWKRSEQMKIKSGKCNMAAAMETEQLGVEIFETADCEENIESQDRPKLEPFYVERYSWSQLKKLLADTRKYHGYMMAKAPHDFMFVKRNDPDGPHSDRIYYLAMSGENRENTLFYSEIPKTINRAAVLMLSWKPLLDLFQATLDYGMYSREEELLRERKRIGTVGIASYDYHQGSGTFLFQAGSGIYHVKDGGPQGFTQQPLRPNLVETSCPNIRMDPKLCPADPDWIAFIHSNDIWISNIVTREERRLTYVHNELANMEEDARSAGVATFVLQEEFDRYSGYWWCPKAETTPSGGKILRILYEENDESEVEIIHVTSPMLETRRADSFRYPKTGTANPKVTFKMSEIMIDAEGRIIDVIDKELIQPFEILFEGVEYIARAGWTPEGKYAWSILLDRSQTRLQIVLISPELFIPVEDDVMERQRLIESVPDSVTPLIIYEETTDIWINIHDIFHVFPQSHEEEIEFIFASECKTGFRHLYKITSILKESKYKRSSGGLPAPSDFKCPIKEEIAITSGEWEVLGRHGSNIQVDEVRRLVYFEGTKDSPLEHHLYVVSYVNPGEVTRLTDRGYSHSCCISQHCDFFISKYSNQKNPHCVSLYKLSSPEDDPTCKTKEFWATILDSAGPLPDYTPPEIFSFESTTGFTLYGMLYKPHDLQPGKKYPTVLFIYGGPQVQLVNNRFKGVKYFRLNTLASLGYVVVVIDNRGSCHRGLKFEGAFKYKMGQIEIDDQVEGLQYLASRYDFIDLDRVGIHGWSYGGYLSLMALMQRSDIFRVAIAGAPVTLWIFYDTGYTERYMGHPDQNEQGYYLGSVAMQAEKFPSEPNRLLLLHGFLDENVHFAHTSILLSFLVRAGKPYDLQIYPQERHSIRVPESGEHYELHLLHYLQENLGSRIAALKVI
Prolyl endopeptidase FAP (Homo sapiens), sequence (Q12884 whole entry): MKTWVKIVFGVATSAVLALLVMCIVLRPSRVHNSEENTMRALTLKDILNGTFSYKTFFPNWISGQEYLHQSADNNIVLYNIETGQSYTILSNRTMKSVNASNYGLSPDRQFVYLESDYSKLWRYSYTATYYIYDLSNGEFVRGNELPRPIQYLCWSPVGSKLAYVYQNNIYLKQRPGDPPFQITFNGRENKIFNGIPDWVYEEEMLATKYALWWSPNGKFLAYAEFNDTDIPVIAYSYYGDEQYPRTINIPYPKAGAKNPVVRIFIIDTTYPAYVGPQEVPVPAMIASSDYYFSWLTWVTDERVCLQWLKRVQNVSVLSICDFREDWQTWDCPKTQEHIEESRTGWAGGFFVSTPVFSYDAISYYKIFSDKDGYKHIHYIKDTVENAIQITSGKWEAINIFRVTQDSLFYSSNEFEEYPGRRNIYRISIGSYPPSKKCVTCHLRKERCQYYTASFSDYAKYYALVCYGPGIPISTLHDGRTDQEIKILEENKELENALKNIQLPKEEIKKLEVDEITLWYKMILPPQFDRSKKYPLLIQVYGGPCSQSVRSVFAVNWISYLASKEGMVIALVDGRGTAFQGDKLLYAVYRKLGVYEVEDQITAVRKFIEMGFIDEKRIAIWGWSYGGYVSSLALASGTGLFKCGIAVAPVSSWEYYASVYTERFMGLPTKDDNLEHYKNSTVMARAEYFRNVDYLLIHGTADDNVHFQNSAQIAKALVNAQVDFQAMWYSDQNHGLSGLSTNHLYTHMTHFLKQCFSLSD

On to `CNC(=O)C[C@H](N)Cc1ccccc1`, for which the Activity in experiment [1] is more than 1000 µM; in experiment [2], more than 1000 µM; in experiment [3] it was 460 µM; in experiment [4] it was 680 µM; in experiment [5] it was more than 1000 µM.

Turning to `N[C@@H](CC(=O)N1CCC[C@H]1C(=O)NCc1cc(Cl)ccc1OCC(=O)NC1CC1)Cc1ccccc1`, the Activity in experiment [3] is more than 10 µM; in experiment [4] it was 66 µM; in experiment [5], more than 100 µM.
